{
  "source": "patent US10913787B2",
  "about": "“Method of identifying musk compounds” (Firmenich SA, priority 2015, dated 2021)",
  "key": {"mouse Olfr96": {"test_system": "mouse Olfr96", "assay": "cell-based cAMP HTRF dose-response assay, tagged mouse Olfr96 in HEK293T cells", "description": "(§1) In a further embodiment, to complete the deorphanization process, the candidate OR genes are further expressed in vitro for confirmation of activity against the compounds used to isolate the olfactory sensory neurons and other structurally-related compounds of interest. The mouse receptors identified from isolated olfactory neurons that respond to both Musk compounds are modified at their N-terminus with short polypeptide sequences (e.g., Flag (SEQ ID NO: 6), Rho (SEQ ID NO: 8; 20 first amino acids of the bovine rhodopsin receptor), or Lucy (SEQ ID NO: 10) tags), transiently expressed in HEK 293T cells, and stimulated separately with Musk compounds to confirm their identity as bona fide Musk compound receptors. Co-expression of the human G alpha subunit Gαolf in this cell-based assay activates the Gs transduction pathway that leads to an internal cAMP increase upon binding to the appropriate ligand. Alternatively, co-expression of the human G alpha subunit Gals in the cell based assay activates the Gq transduction pathway that leads to an internal Ca^2+ increase upon binding to the appropriate ligand. The above process and the results obtained so far serve to validate the process for rapid and reliable identification of mammalian odorant receptors for Musk compounds.\nFunctional dose-response experiments were performed to evaluate the level of functional activity of the modified cell line. Using a cell-based assay, mouse Olfr96 was tested in an HEK293T cell line wherein the endogenous RTP1 gene has been activated and the odorant receptor chaperone was expressed. Flag-Rho-tagged receptor genes were co-transfected with the olfactory canonical G-protein Goff gene and were exposed to increasing concentrations of the Musk odorants Tonalide, Vulcanolide, and Muscone. Odorant-induced activity was detected by measuring the cAMP increase in the cytosol using an HTRF based kit (CisBio, cAMP dynamic 2 kit, 62AM4PEJ). […] In an additional repeat experiment using the same conditions, mouse Olfr96 and corresponding human ortholog OR11A1 were tested side by side in duplicate with a musk diversity set for specificity assessment."}, "human ortholog OR11A1": {"target": "T1, human ortholog OR11A1 (Homo sapiens, UniProt Q9GZK7)", "T1 construct": "expressed in transfected cells", "T1 sequence (Q9GZK7 1-315)": "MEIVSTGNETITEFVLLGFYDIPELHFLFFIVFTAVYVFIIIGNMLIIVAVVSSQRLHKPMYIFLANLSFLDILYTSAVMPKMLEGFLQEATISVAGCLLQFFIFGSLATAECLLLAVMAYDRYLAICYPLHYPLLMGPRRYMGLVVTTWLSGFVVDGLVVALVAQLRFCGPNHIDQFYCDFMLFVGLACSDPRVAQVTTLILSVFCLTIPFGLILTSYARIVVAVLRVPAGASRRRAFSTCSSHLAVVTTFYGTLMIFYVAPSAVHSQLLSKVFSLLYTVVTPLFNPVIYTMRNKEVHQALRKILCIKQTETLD", "assay": "cell-based cAMP HTRF dose-response assay, tagged human OR11A1 in HEK293T cells", "conditions": "Lucy-Flag-Rho-tagged receptor, in duplicate, musk diversity set, FIG. 3", "description": "as §1, with “The above process and the results obtained so far serve to validate the process for rapid and reliable identification of mammalian odorant receptors for Musk compounds.” left out\nFunctional dose-response experiments were performed to evaluate the level of functional activity of the modified cell line. […] Odorant-induced activity was detected by measuring the cAMP increase in the cytosol using an HTRF based kit (CisBio, cAMP dynamic 2 kit, 62AM4PEJ). […]"}, "[1]": {"conditions": "repeat experiment, Lucy-Flag-Rho-tagged receptor, HEK293T, in duplicate, musk diversity set, FIG. 3"}, "[2]": {"conditions": "Flag-Rho-tagged receptor, HEK293T with activated RTP1, increasing concentrations of odorant, FIG. 2"}},
  "data": [
    {"compound": "CC1C(C)(C)C2=C(C(=O)CCC2)C1(C)C", "note": "(stereo not shown) [Cashmeran]", "values": [
      {"measurement": "dose-dependent increase of Olfr96 receptor activity (cAMP increase in the cytosol)", "setting": "mouse Olfr96; [1]", "value": "dose-dependent increase"}
    ]},
    {"compound": "Cc1c([N+](=O)[O-])c(C)c([N+](=O)[O-])c(C(C)(C)C)c1[N+](=O)[O-]", "note": "[Musk X]", "values": [
      {"measurement": "dose-dependent increase of Olfr96 receptor activity (cAMP increase in the cytosol)", "setting": "mouse Olfr96; [1]", "value": "dose-dependent increase"}
    ]},
    {"compound": "CC(=O)c1cc2c(cc1C)C(C)(C)C(C)CC2(C)C", "note": "(stereo not shown) [Tonalide]", "values": [
      {"measurement": "dose-dependent increase of Olfr96 receptor activity (cAMP increase in the cytosol)", "setting": "mouse Olfr96; [2]", "value": "dose-dependent increase"},
      {"measurement": "dose-dependent increase of Olfr96 receptor activity (cAMP increase in the cytosol)", "setting": "mouse Olfr96; [1]", "value": "dose-dependent increase"}
    ]},
    {"compound": "Cc1cc2c(cc1C=O)C(C)(C)[C@@H](C)[C@H](C)C2(C)C", "note": "[Vulcanolide]", "values": [
      {"measurement": "dose-dependent increase of OR11A1 receptor activity (cAMP increase in the cytosol)", "setting": "human ortholog OR11A1", "value": "dose-dependent increase"},
      {"measurement": "dose-dependent increase of Olfr96 receptor activity (cAMP increase in the cytosol)", "setting": "mouse Olfr96; [2]", "value": "dose-dependent increase"},
      {"measurement": "dose-dependent increase of Olfr96 receptor activity (cAMP increase in the cytosol)", "setting": "mouse Olfr96; [1]", "value": "dose-dependent increase"}
    ]}
  ]
}
